Measurements published in ChEMBL document CHEMBL1143427, “Interactions of ceftobiprole with beta-lactamases from molecular classes A to D” (Antimicrob Agents Chemother, 2007).
≈ marks a conversion by molar mass, not a printed value.

Experiments:
Format in all cases: functional
[1] = tested on: Pseudomonas aeruginosa; experiment: Antibacterial activity against Pseudomonas aeruginosa 18SH producing beta lactamase AmpC by broth microdilution method
[2] = tested on: Pseudomonas aeruginosa; experiment: Antibacterial activity against Pseudomonas aeruginosa 4352 producing beta lactamase AmpC by broth microdilution method
[3] = tested on: Pseudomonas aeruginosa; experiment: Antibacterial activity against Pseudomonas aeruginosa 7052 producing beta lactamase VIM2 by broth microdilution method
[4] = tested on: Staphylococcus aureus; experiment: Antibacterial activity against Staphylococcus aureus 4116 producing betalactamase PC1 by broth microdilution method
[5] = tested on: Klebsiella pneumoniae; experiment: Antibacterial activity against Klebsiella pneumoniae 4094 producing beta lactamase TEM26 by broth microdilution method
[6] = tested on: Klebsiella pneumoniae; experiment: Antibacterial activity against Klebsiella pneumoniae 4238 producing beta lactamase SHV1 by broth microdilution method
[7] = tested on: Escherichia coli; experiment: Antibacterial activity against Escherichia coli 11732 producing beta lactamase CTX-M-15 by broth microdilution method
[8] = tested on: Providencia stuartii; experiment: Antibacterial activity against Providencia stuartii 2772 producing beta lactamase AmpC by broth microdilution method
[9] = tested on: Serratia marcescens; experiment: Antibacterial activity against Serratia marcescens 7554 producing beta lactamase SME3 by broth microdilution method
[10] = tested on: Escherichia coli; experiment: Antibacterial activity against Escherichia coli producing beta lactamase TEM1 by broth microdilution method
[11] = tested on: Morganella morganii; experiment: Antibacterial activity against Morganella morganii 2574 producing beta lactamase AmpC by broth microdilution method
[12] = tested on: Serratia marcescens; experiment: Antibacterial activity against Serratia marcescens 4104 producing beta lactamase AmpC by broth microdilution method
[13] = tested on: Pseudomonas aeruginosa; experiment: Antibacterial activity against Pseudomonas aeruginosa MK-1184 producing beta lactamase AmpC by broth microdilution method
[14] = tested on: Pseudomonas aeruginosa; experiment: Antibacterial activity against Pseudomonas aeruginosa HPA101-1477 producing beta lactamase IMP1 by broth microdilution method
[15] = tested on: Escherichia coli; experiment: Antibacterial activity against Escherichia coli 6226 producing beta lactamase KPC2 by broth microdilution method
[16] = tested on: Pseudomonas aeruginosa; experiment: Antibacterial activity against Pseudomonas aeruginosa 4083 producing beta lactamase OXA10 by broth microdilution method
[17] = tested on: Klebsiella oxytoca; experiment: Antibacterial activity against Klebsiella oxytoca 4076 producing beta lactamase K1 by broth microdilution method
[18] = tested on: Enterobacter cloacae; experiment: Antibacterial activity against Enterobacter cloacae 908R producing beta lactamase AmpC by broth microdilution method
[19] = tested on: Enterobacter cloacae; experiment: Antibacterial activity against Enterobacter cloacae 4080 producing beta lactamase AmpC (P99) by broth microdilution method
[20] = tested on: Enterobacter cloacae; experiment: Antibacterial activity against Enterobacter cloacae 4092 producing beta lactamase AmpC (E2) by broth microdilution method
[21] = tested on: Enterobacter cloacae; experiment: Antibacterial activity against Enterobacter cloacae 4081 producing beta lactamase AmpC (E2) by broth microdilution method
[22] = tested on: Staphylococcus aureus; experiment: Antibacterial activity against methicillin-susceptible Staphylococcus aureus
[23] = tested on: Staphylococcus aureus; experiment: Antibacterial activity against methicillin-resistant Staphylococcus aureus

Compound | MIC [1] [µg/mL] | MIC [2] [µg/mL] | MIC [3] [µg/mL] | MIC [4] [µg/mL] | MIC [5] [µg/mL] | MIC [6] [µg/mL] | MIC [7] [µg/mL] | MIC [8] [µg/mL] | MIC [9] [µg/mL] | MIC [10] [µg/mL] | MIC [11] [µg/mL] | MIC [12] [µg/mL] | MIC [13] [µg/mL] | MIC [14] [µg/mL] | MIC [15] [µg/mL] | MIC [16] [µg/mL] | MIC [17] [µg/mL] | MIC [18] [µg/mL] | MIC [19] [µg/mL] | MIC [20] [µg/mL] | also measured
CO/N=C(\C(=O)N[C@@H]1C(=O)N2C(C(=O)[O-])=C(C[N+]3(C)CCCC3)CS[C@H]12)c1csc(N)n1 | 32 (≈ 66.6 µM) | 2 (≈ 4.16 µM) | 128 (≈ 266 µM) | 2 (≈ 4.16 µM) | 4 (≈ 8.32 µM) | 0.25 (≈ 0.52 µM) | 16 (≈ 33.3 µM) | 0.25 (≈ 0.52 µM) | 0.25 (≈ 0.52 µM) | 0.12 (≈ 0.25 µM) | 0.03 (≈ 0.0624 µM) | 0.12 (≈ 0.25 µM) | 32 (≈ 66.6 µM) | > 32 | 16 (≈ 33.3 µM) | 8 (≈ 16.6 µM) | 2 (≈ 4.16 µM) |  |  |  | 
CC(C)(O/N=C(\C(=O)N[C@@H]1C(=O)N2C(C(=O)[O-])=C(C[n+]3ccccc3)CS[C@H]12)c1csc(N)n1)C(=O)O [CEFTAZIDIME] | 32 (≈ 58.5 µM) | 4 (≈ 7.32 µM) | 64 (≈ 117 µM) | 4 (≈ 7.32 µM) | > 256 | 2 (≈ 3.66 µM) | 32 (≈ 58.5 µM) | 4 (≈ 7.32 µM) | 0.5 (≈ 0.915 µM) | 0.5 (≈ 0.915 µM) | 1 (≈ 1.83 µM) | 0.25 (≈ 0.457 µM) | 32 (≈ 58.5 µM) | > 32 | 32 (≈ 58.5 µM) | 2 (≈ 3.66 µM) | 0.5 (≈ 0.915 µM) | > 64 | 64 (≈ 117 µM) | 1 (≈ 1.83 µM) | MIC [21]: > 128 µg/mL
Nc1nc(/C(=N/O)C(=O)N[C@@H]2C(=O)N3C(C(=O)O)=C(/C=C4\CCN([C@@H]5CCNC5)C4=O)CS[C@H]23)ns1 [CEFTOBIPROLE] | 16 (≈ 29.9 µM) | 4 (≈ 7.48 µM) | > 128 | 0.25 (≈ 0.468 µM) | 0.25 (≈ 0.468 µM) | 0.5 (≈ 0.935 µM) | > 128 | 0.015 (≈ 0.0281 µM) | 0.25 (≈ 0.468 µM) | 0.5 (≈ 0.935 µM) | 0.03 (≈ 0.0561 µM) | 0.12 (≈ 0.224 µM) | 32 (≈ 59.9 µM) | > 32 | 16 (≈ 29.9 µM) | 128 (≈ 239 µM) | > 32 | 4 (≈ 7.48 µM) | 2 (≈ 3.74 µM) | 0.12 (≈ 0.224 µM) | MIC90 [22]: 0.5 µg/mL (≈ 0.935 µM); MIC90 [23]: 2 µg/mL (≈ 3.74 µM); MIC [21]: 1 µg/mL (≈ 1.87 µM)
